Reference: PubChem BioAssay (NCI)
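Cells were grown in 96-well plates and exposed to each compound for 48 hours at five concentrations; endpoints were interpolated linearly between bracketing concentrations, or set to the highest concentration if not reached. TGI marks complete inhibition of growth.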

Tests used:
Assay in all cases: NCI tumour cell line growth inhibition, 48 h
[1] = tested on: 786-0 renal
[2] = tested on: A498 renal
[3] = tested on: A549 NSCLC
[4] = tested on: ACHN renal
[5] = tested on: BT-549 breast
[6] = tested on: CAKI-1 renal
[7] = tested on: CCRF-CEM leukemia
[8] = tested on: COLO 205 colon
[9] = tested on: DLD-1 colon
[10] = tested on: DMS 114 small cell lung
[11] = tested on: DMS 273 small cell lung
[12] = tested on: DU-145 prostate
[13] = tested on: EKVX NSCLC
[14] = tested on: HCC-2998 colon
[15] = tested on: HCT-116 colon
[16] = tested on: HCT-15 colon
[17] = tested on: HL-60(TB) leukemia
[18] = tested on: HOP-18 NSCLC
[19] = tested on: HOP-62 NSCLC
[20] = tested on: HOP-92 NSCLC
[21] = tested on: HS 578T breast
[22] = tested on: HT29 colon
[23] = tested on: IGROV1 ovarian
[24] = tested on: K-562 leukemia
[25] = tested on: KM12 colon
[26] = tested on: KM20L2 colon
[27] = tested on: LOX IMVI melanoma
[28] = tested on: LXFL 529 NSCLC
[29] = tested on: M14 melanoma
[30] = tested on: M19-MEL melanoma
[31] = tested on: MALME-3M melanoma
[32] = tested on: MCF7 breast
[33] = tested on: MDA-MB-231 breast
[34] = tested on: MDA-MB-435
[35] = tested on: MDA-N
[36] = tested on: MOLT-4 leukemia
[37] = tested on: NCI-H226 lung
[38] = tested on: NCI-H23 lung
[39] = tested on: NCI-H460 lung
[40] = tested on: NCI-H522 lung
[41] = tested on: NCI/ADR-RES ovarian
[42] = tested on: OVCAR-3 ovarian
[43] = tested on: OVCAR-4 ovarian
[44] = tested on: OVCAR-5 ovarian
[45] = tested on: OVCAR-8 ovarian
[46] = tested on: PC-3 prostate
[47] = tested on: RPMI-8226 leukemia
[48] = tested on: RXF 393 renal
[49] = tested on: RXF-631 renal
[50] = tested on: SF-268 CNS
[51] = tested on: SF-295 CNS
[52] = tested on: SF-539 CNS
[53] = tested on: SK-MEL-2 melanoma
[54] = tested on: SK-MEL-28 melanoma
[55] = tested on: SK-MEL-5 melanoma
[56] = tested on: SK-OV-3 ovarian
[57] = tested on: SN12C renal
[58] = tested on: SNB-19 CNS
[59] = tested on: SNB-75 CNS
[60] = tested on: SNB-78 CNS
[61] = tested on: SR leukemia
[62] = tested on: SW-620 colon
[63] = tested on: T-47D breast
[64] = tested on: TK-10 renal
[65] = tested on: U251 CNS
[66] = tested on: UACC-257 melanoma
[67] = tested on: UACC-62 melanoma
[68] = tested on: UO-31 renal
[69] = tested on: XF 498 CNS

What does the source list for CN(C)[C@@H]1C(=O)C(C(=O)NCNc2nc3n[nH]nc3c(=O)[nH]2)=C(O)[C@@]2(O)C(=O)C3=C(O)c4c(O)cccc4[C@@](C)(O)[C@H]3C[C@@H]12?
TGI [1]: > 100 µM; TGI [2]: > 100 µM; TGI [3]: > 100 µM; TGI [4]: > 100 µM; TGI [5]: > 100 µM; TGI [6]: > 100 µM; TGI [7]: > 17.7 µM; TGI [8]: 57.4 µM; TGI [9]: > 77.8 µM; TGI [10]: 13.8 µM; TGI [11]: > 100 µM; TGI [12]: 22.5 µM; TGI [13]: > 69.5 µM; TGI [14]: > 100 µM; TGI [15]: 24.7 µM; TGI [16]: > 100 µM; TGI [17]: 11.6 µM; TGI [18]: > 100 µM; TGI [19]: 27.2 µM; TGI [20]: > 30 µM; TGI [21]: 53.5 µM; TGI [22]: > 100 µM; TGI [23]: > 100 µM; TGI [24]: > 16.9 µM; TGI [25]: > 100 µM; TGI [26]: > 68.9 µM; TGI [27]: 17.3 µM; TGI [28]: > 100 µM; TGI [29]: 15.8 µM; TGI [30]: 15 µM; TGI [31]: 13.1 µM; TGI [32]: > 100 µM; TGI [33]: > 100 µM; TGI [34]: 7.35 µM; TGI [35]: 14.5 µM; TGI [36]: > 17.2 µM; TGI [37]: 56.9 µM; TGI [38]: > 100 µM; TGI [39]: > 97.1 µM; TGI [40]: > 80.3 µM; TGI [41]: > 100 µM; TGI [42]: > 74.2 µM; TGI [43]: > 58.3 µM; TGI [44]: 98.6 µM; TGI [45]: > 100 µM; TGI [46]: > 100 µM; TGI [47]: 6.7 µM; TGI [48]: 5.37 µM; TGI [49]: > 47.5 µM; TGI [50]: > 92.2 µM; TGI [51]: > 100 µM; TGI [52]: 8.88 µM; TGI [53]: 3.09 µM; TGI [54]: 22.1 µM; TGI [55]: 10.9 µM; TGI [56]: 8.25 µM; TGI [57]: > 91.2 µM; TGI [58]: > 100 µM; TGI [59]: > 95.8 µM; TGI [60]: > 100 µM; TGI [61]: > 19.5 µM; TGI [62]: > 56.2 µM; TGI [63]: > 100 µM; TGI [64]: > 80.5 µM; TGI [65]: > 61.3 µM; TGI [66]: > 87.8 µM; TGI [67]: 7.59 µM; TGI [68]: 18.5 µM; TGI [69]: > 26.9 µM
